Type in all cases: in vivo
In one test the test system is Tetranychus urticae. Put plainly: Tetranychus urticae spray test, OP-resistant. The settings on record: after 6 days. The method, boiled down: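 Bean leaf discs (Phaseolus vulgaris) carrying all stages of OP-resistant mites are sprayed with compound formulated in solvent and emulsifier-containing water. Efficacy (% mites killed) is scored after 6 days.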
The test system of the next test is Rhipicephalus sanguineus. Put plainly: Rhipicephalus sanguineus in vitro contact test with adult brown dog ticks. The conditions noted are these: after 48 h, ticks dead or moribund. In outline: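 Test tubes (25 ml) were coated by dissolving active ingredient in acetone p.a., diluting to the required concentration, and spreading 250 μl over the inner walls and base on an orbital shaker at 30 rpm for 2 h. Once dry, 5-10 adult Rhipicephalus sanguineus were added, and tubes were capped with perforated lids and kept horizontal in darkness at room temperature. At 48 h, ticks were knocked down and heated at 45-50° C. for up to 5 min. Those unable to climb away were counted dead or moribund, and efficacy ran from 0% to 100%.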

Another test deals with Lucilia cuprina. Put plainly: Lucilia cuprina test. The conditions noted are these: application rate 100 ppm; L1 larvae; after 2 days. The method, boiled down:
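About 20 L1 larvae placed in vessels with minced horsemeat treated with compound (DMSO concentrate diluted in water) at the desired concentration. Kill (%) scored after 2 days; 100% means all larvae dead, 0% none.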

The test system of the next test is Myzus persicae. Put plainly: Myzus persicae spray test. The settings on record: after 6 days. How it is done: Myzus persicae—Spray Test
To produce an appropriate active ingredient formulation, 1 part by weight of active ingredient is dissolved using the specified parts by weight of solvent and made up with water containing an emulsifier concentration of 1000 ppm until the desired concentration is attained. To produce further test concentrations, the preparation is diluted with emulsifier-containing water.
Discs of Chinese cabbage leaves (Brassica pekinensis) infested by all stages of the green peach aphid (Myzus persicae) are sprayed with an active ingredient formulation of the desired concentration.
After 6 days, efficacy in % is determined. 100% means that all the aphids have been killed; 0% means that none of the aphids have been killed.

Test [1] concerns Ctenocephalides felis. The test can be described thus: Ctenocephalides felis oral test. The conditions noted are these: application rate 100 ppm in citrated cattle blood; after 2 days. In outline:
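Oral exposure of unfed adult fleas, roughly 20 per chamber, to compound-spiked citrated cattle blood taken up across a parafilm membrane. Read-out is percent kill at 2 days, where 100% means every flea dead.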

Another test relates to Spodoptera frugiperda. Put plainly: Spodoptera frugiperda spray test. The conditions noted are these: caterpillars, after 7 days. In outline:
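Maize leaf discs were sprayed with compound formulated in solvent plus water containing 1000 ppm emulsifier, dried, then infested with Spodoptera frugiperda caterpillars. Efficacy in % mortality was scored after 7 days (100% all killed, 0% none).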

For a further test, the system named is Phaedon cochleariae. The test can be described thus: Phaedon cochleariae spray test. The settings on record: larvae, after 7 days. In outline:
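Chinese cabbage leaf discs were sprayed with the compound formulated in water containing 1000 ppm emulsifier. After drying, they were infested with mustard beetle larvae. Efficacy was scored as % larvae killed after 7 days (100% = all dead, 0% = none).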

Another test concerns Boophilus microplus. The test can be described thus: Boophilus microplus injection test. The conditions noted are these: application rate 20 μg/animal; injection into abdomen; assessed after 7 days. In outline:
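DMSO formulation, 1 μl intra-abdominal injection, n=5 engorged adult females; climate-controlled room; score fertile eggs d7, unclear eggs held until larval hatch (~42 d); % efficacy, 100% = no fertile eggs.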

The subject of test [2] is Ctenocephalides felis. The test can be described thus: Ctenocephalides felis in vitro contact test with adult cat fleas. The conditions noted are these: application rate 5 μg/cm^2 (500 g/ha); after 48 h; fleas dead or moribund. As to the method: Ctenocephalides felis—In Vitro Contact Tests with Adult Cat Fleas
For the coating of the test tubes, 9 mg of active ingredient are first dissolved in 1 ml of acetone p.a. and then diluted to the desired concentration with acetone p.a. 250 μl of the solution are distributed homogeneously on the inner walls and base of a 25 ml test tube by turning and rocking on an orbital shaker (rocking rotation at 30 rpm for 2 h). With 900 ppm active ingredient solution and internal surface 44.7 cm^2, given homogeneous distribution, an area-based dose of 5 μg/cm^2 is achieved.
After the solvent has evaporated off, the tubes are populated with 5-10 adult cat fleas (Ctenocephalides felis), sealed with a perforated plastic lid and incubated in a horizontal position at room temperature and ambient humidity. After 48 h, efficacy is determined. To this end, the test tubes are stood upright and the fleas are knocked to the base of the tube. Fleas which remain motionless at the base or move in an uncoordinated manner are considered to be dead or moribund.
100% efficacy means that all the fleas were dead or moribund. 0% efficacy means that no fleas were harmed.

In a further test the test system is Musca domestica. The test can be described thus: Musca domestica test. The settings on record: application rate 100 ppm; adult houseflies; after 2 days. How it is done: Solvent: dimethyl sulphoxide
To produce an appropriate active ingredient formulation, 10 mg of active ingredient are mixed with 0.5 ml of dimethyl sulphoxide, and the concentrate is diluted with water to the desired concentration.
Vessels containing a sponge treated with sugar solution and the active ingredient formulation of the desired concentration are populated with 10 adult houseflies (Musca domestica).
After 2 days, the kill in % is determined. 100% means that all of the flies have been killed; 0% means that none of the flies have been killed.

The mark [3] stands for this setting: application rate 5 μg/cm^2 (500 g/ha).
[4] abbreviates: application rate 1 μg/cm^2 (100 g/ha).

For the compound `Cn1nc(C(F)(F)C(F)(F)F)c(C(F)(F)F)c1-n1cc(-c2cccc(NC(=O)C(F)(F)C(F)F)c2)cn1` [Example 1-009], the efficacy in the test on Tetranychus urticae (application rate 500 g/ha), in the test on Rhipicephalus sanguineus (setting [3]), with Myzus persicae (application rate 100 g/ha), in the test with Spodoptera frugiperda (application rate 500 g/ha) and with Phaedon cochleariae (application rate 500 g/ha) was 100% throughout. For the same compound, the “efficacy (kill in %)” value in the test with Lucilia cuprina and in the test with Ctenocephalides felis [1] was 100% throughout. Besides, the “efficacy (laying of fertile eggs)” value in the test on Boophilus microplus is 100%.
For the compound `Cn1nc(C(F)(F)C(F)(F)F)c(C(F)(F)F)c1-n1cc(-c2cccc(NC(=O)c3ccccc3F)c2)cn1` [Example 1-012], the efficacy is 100% with Tetranychus urticae (application rate 100 g/ha); 100% in the test with Rhipicephalus sanguineus (setting [3]); 90% with Myzus persicae (application rate 100 g/ha); 100% in the test with Spodoptera frugiperda (application rate 100 g/ha); 100% with Phaedon cochleariae (application rate 100 g/ha); 100% with Ctenocephalides felis [2]. Also, the “efficacy (kill in %)” value in the test with Lucilia cuprina and in the test on Ctenocephalides felis [1] was 100% each time. Besides, the “efficacy (laying of fertile eggs)” value in the test with Boophilus microplus came to 100%.
Consider `Cn1nc(C(F)(F)C(F)(F)F)c(C(F)(F)F)c1-n1cc(-c2cccc(NC(=O)c3ccsc3)c2)cn1` [Example 1-016], for which the efficacy amounted to 100% in the test on Tetranychus urticae (application rate 500 g/ha); 100% in the test with Rhipicephalus sanguineus (setting [3]); 90% in the test on Myzus persicae (application rate 500 g/ha); 100% with Spodoptera frugiperda (application rate 500 g/ha); 100% with Phaedon cochleariae (application rate 500 g/ha); 100% with Ctenocephalides felis [2]. The “efficacy (kill in %)” value in the test with Lucilia cuprina and in the test on Ctenocephalides felis [1] was 100% in each case. Besides, the “efficacy (laying of fertile eggs)” value with Boophilus microplus worked out at 100%.
As to `Cn1nc(C(F)(F)C(F)(F)F)c(C(F)(F)F)c1-n1cc(-c2cccc(NC(=O)c3cccs3)c2)cn1` [Example 1-017], the efficacy came out at 100% with Tetranychus urticae (application rate 100 g/ha); 100% in the test on Rhipicephalus sanguineus (setting [3]); 90% in the test with Myzus persicae (application rate 100 g/ha); 100% with Spodoptera frugiperda (application rate 100 g/ha); 100% in the test with Phaedon cochleariae (application rate 100 g/ha). Further, the “efficacy (kill in %)” value in the test with Lucilia cuprina and in the test on Ctenocephalides felis [1] was 100% in each case. The “efficacy (laying of fertile eggs)” value in the test with Boophilus microplus amounted to 100%.
On to `Cn1cc(C(=O)Nc2cccc(-c3cnn(-c4c(C(F)(F)F)c(C(F)(F)C(F)(F)F)nn4C)c3)c2)cn1` [Example 1-019], for which the “efficacy (kill in %)” value in the test with Musca domestica, with Lucilia cuprina and with Ctenocephalides felis [1] was 100% throughout. Also, the efficacy was determined as 100% with Tetranychus urticae (application rate 100 g/ha), 90% in the test on Myzus persicae (application rate 100 g/ha), 100% with Spodoptera frugiperda (application rate 100 g/ha) and 100% with Phaedon cochleariae (application rate 100 g/ha). In addition, the “efficacy (laying of fertile eggs)” value in the test with Boophilus microplus stood at 100%.
As to `Cn1nc(C(F)(F)C(F)(F)F)c(C(F)(F)F)c1-n1cc(-c2ccc(F)c(NC(=O)C(F)(F)C(F)F)c2)cn1` [Example 1-033], the efficacy with Tetranychus urticae (application rate 100 g/ha) worked out at 100%; in the test with Rhipicephalus sanguineus (setting [4]), 100%; with Myzus persicae (application rate 100 g/ha), 90%; in the test on Phaedon cochleariae (application rate 100 g/ha), 83%. Further, the “efficacy (kill in %)” value in the test with Lucilia cuprina and in the test with Ctenocephalides felis [1] was 100% throughout. Further, the “efficacy (laying of fertile eggs)” value in the test on Boophilus microplus was 100%.
Turning to `COCC(=O)Nc1cc(-c2cnn(-c3c(C(F)(F)F)c(C(F)(F)C(F)(F)F)nn3C)c2)ccc1F` [Example 1-048], the values for the efficacy with Tetranychus urticae (application rate 100 g/ha), in the test on Rhipicephalus sanguineus (setting [3]) and in the test with Myzus persicae (application rate 100 g/ha) were 100%, 100% and 90%, respectively. Further, the “efficacy (kill in %)” value in the test on Lucilia cuprina and with Ctenocephalides felis [1] was 95% throughout. Moreover, in the test on Boophilus microplus, the “efficacy (laying of fertile eggs)” value was determined as 100%.
For `CC(C)C(=O)Nc1cc(-c2cnn(-c3c(C(F)(F)F)c(C(F)(F)C(F)(F)F)nn3C)c2)ccc1F` [Example 1-064], the efficacy in the test on Tetranychus urticae (application rate 100 g/ha), with Rhipicephalus sanguineus (setting [3]), with Myzus persicae (application rate 100 g/ha), in the test on Spodoptera frugiperda (application rate 100 g/ha), in the test with Phaedon cochleariae (application rate 100 g/ha) and with Ctenocephalides felis [2] was 100% each time. For the same compound, the “efficacy (kill in %)” value in the test on Lucilia cuprina and with Ctenocephalides felis [1] was 100% throughout. Moreover, in the test on Boophilus microplus, the “efficacy (laying of fertile eggs)” value is given as 100%.
Turning to `CCC(=O)Nc1cc(-c2cnn(-c3c(C(F)(F)F)c(C(F)(F)C(F)(F)F)nn3C)c2)ccc1F` [Example 1-076], the efficacy is listed as 90% with Tetranychus urticae (application rate 100 g/ha); 100% in the test with Rhipicephalus sanguineus (setting [3]); 100% with Myzus persicae (application rate 100 g/ha); 100% with Spodoptera frugiperda (application rate 100 g/ha); 100% in the test with Phaedon cochleariae (application rate 100 g/ha); 100% in the test with Ctenocephalides felis [2]. Further, the “efficacy (kill in %)” value in the test with Lucilia cuprina stood at 95%; in the test with Ctenocephalides felis [1] it was 100%. Further, in the test on Boophilus microplus, the “efficacy (laying of fertile eggs)” value was determined as 100%.
As to `Cc1oncc1C(=O)Nc1cc(-c2cnn(-c3c(C(F)(F)F)c(C(F)(F)C(F)(F)F)nn3C)c2)ccc1F` [Example 1-081], the efficacy with Tetranychus urticae (application rate 100 g/ha), in the test on Rhipicephalus sanguineus (setting [3]), in the test with Myzus persicae (application rate 100 g/ha), in the test on Spodoptera frugiperda (application rate 100 g/ha), in the test with Phaedon cochleariae (application rate 100 g/ha) and with Ctenocephalides felis [2] was 100% throughout. Besides, the “efficacy (kill in %)” value in the test on Lucilia cuprina and in the test with Ctenocephalides felis [1] was 100% in each case. Further, the “efficacy (laying of fertile eggs)” value in the test on Boophilus microplus is on record as 100%.
Turning to `Cn1nc(C(F)(F)C(F)(F)F)c(C(F)(F)F)c1-n1cc(-c2ccc(F)c(NC(=O)c3ccc(Cl)c(F)c3)c2)cn1` [Example 1-096], the “efficacy (kill in %)” value in the test on Musca domestica was found to be 90%; in the test with Lucilia cuprina, 100%; with Ctenocephalides felis [1], 100%. The efficacy in the test on Tetranychus urticae (application rate 100 g/ha), in the test with Rhipicephalus sanguineus (setting [3]), in the test on Spodoptera frugiperda (application rate 100 g/ha), in the test with Phaedon cochleariae (application rate 100 g/ha) and in the test on Ctenocephalides felis [2] was 100% throughout. Moreover, in the test on Boophilus microplus, the “efficacy (laying of fertile eggs)” value amounted to 100%.
For `Cn1nc(C(F)(F)C(F)(F)F)c(C(F)(F)F)c1-n1cc(-c2cnc(F)c(NC(=O)c3ccncc3)c2)cn1` [Example 2-005], the results for the “efficacy (kill in %)” value with Musca domestica, in the test with Lucilia cuprina and in the test on Ctenocephalides felis [1] were 90%, 100% and 100%, respectively. Besides, the efficacy is listed as 100% with Tetranychus urticae (application rate 20 g/ha); 80% in the test on Rhipicephalus sanguineus (setting [4]); 100% in the test with Spodoptera frugiperda (application rate 100 g/ha); 100% with Phaedon cochleariae (application rate 100 g/ha); 100% in the test with Ctenocephalides felis [2]. Also, the “efficacy (laying of fertile eggs)” value with Boophilus microplus is recorded as 100%.
With `Cn1nc(C(F)(F)C(F)(F)F)c(C(F)(F)F)c1-n1cc(-c2cnc(Cl)c(NC(=O)c3ccncc3)c2)cn1` [Example 2-006], the results for the “efficacy (kill in %)” value in the test on Musca domestica, in the test with Lucilia cuprina and with Ctenocephalides felis [1] were 90%, 100% and 100%, respectively. Also, the efficacy in the test with Tetranychus urticae (application rate 100 g/ha) came to 100%; in the test with Rhipicephalus sanguineus (setting [3]), 80%; with Spodoptera frugiperda (application rate 100 g/ha) it was 100%; in the test with Phaedon cochleariae (application rate 100 g/ha), 100%; with Ctenocephalides felis [2], 100%. Further, the “efficacy (laying of fertile eggs)” value in the test with Boophilus microplus is reported as 100%.

(Values after patent publication US10273226B2, “Pyrazolyl-heteroarylamides as pesticides” (Bayer Animal Health GmbH, priority 2014, dated 2019).)
